Here are results for two compounds from patent publication US6642254B2, “Heterocyclic compounds and their therapeutic use” (Darwin Discovery, Ltd., priority 1998, dated 2003).

In brackets after ≈: the same amount, converted by molar mass. Where two headings read alike, the source gives them in different places.

Series [1] in a line: Solubility in water at pH 7. Type of series: physicochemical. On the procedure:
The solubility of the compound of Example 8, in water at pH 7, was 0.2 mg/ml. The solubility of the corresponding free base, under the same conditions, was 0.002 mg/ml.

A short description of series [2]: Pharmacokinetic profile in cannulated rats (oral dosing). It counts as in vivo. As to conditions: rat, oral dose 3 mg/kg, plasma. The method, then: The pharmacokinetic profile of the compounds of the invention is determined in rats cannulated in the right carotid artery for blood collection. For iv dosing, the compound is prepared in a suitable formulation, for example 10% v/v DMSO, 50% v/v PEG 400 in water, and dosing is carried out by cannulation of the left jugular vein. Samples are collected at 5 min, 0.5, 1, 2, 4, 6 and 8 hours post-dosing. For oral dosing, the compound is prepared in a suitable formulation such as 0.4% w/v methylcellulose in water Samples are collected at 0.5, 1, 2, 4, 6 and 8 hours post-dosing. In some cases, samples are also collected at 12 hours post-dosing. Plasma is obtained by centrifugation of the each blood sample and drug concentration is then determined using standard methods, such as liquid chromatography-mass spectrometry following protein precipitation.
Results are tabulated below, and are also shown in the accompanying drawing. The drawing is a graph of PK data following oral dosing in the rat; PC (plasma concentration; ng/ml) is plotted against t (time; hours). ▪ represents the compound of Example 8, and · the free base. The superiority of the novel compound is evident.

As for `COc1ccc(C(=O)Nc2c(Cl)c[n+]([O-])cc2Cl)c2ccc(C(F)(F)F)nc12` [Example 8, 8-Methoxy-2-trifluoromethylquinoline-5-carboxylic Acid (3,5-dichloro-1-oxypyridin-4-yl)amide], in series [1], the solubility – broadly, the dissolved amount per volume that the medium holds – came out at 200 µg/mL (≈ 463 µM). For the same compound, in series [2], the “AUC0-last (po)” value turned out to be 30169 ng·h/mL, the “Cmax (po)” value is 3054 ng/mL and the “t1/2 (po)” value stood at 20 h.
Regarding `COc1ccc(C(=O)Nc2c(Cl)cncc2Cl)c2ccc(C(F)(F)F)nc12` [Free base, 8-Methoxy-2-trifluoromethylquinoline-5-carboxylic acid (3,5-dichloropyridin-4-yl)amide], the solubility in series [1] (aqueous buffer, read-out: solubility) worked out at 2 µg/mL (≈ 4.81 µM). Besides, the “Cmax (po)” value in series [2] worked out at 1008 ng/mL. Further, the AUC(0-t) in series [2] (read-out: AUC0-last (po)) is 6860 ng·h/mL. In addition, in series [2] (read-out: t1/2 (po) (converted)), the half-life is 4.5 h.
